In patent US20230310479A1, “LOW DOSE ADJUVANT EPIGENETIC CANCER THERAPY” (THE JOHNS HOPKINS UNIVERSITY, priority 2019, published 2023):
Like-named read-outs stand apart in the source and are kept apart here.

Columns and labels:
[1] = cited from earlier work
CCR2 = CCR2 expression in monocytic MDSCs (cDNA array, quantitative PCR, FACS); type: in vivo, mouse; details: three days of treatment, 30 or 75 mg/kg/d orally, LLC mice
Excerpt: FIGS. 2A-2G. […] FACS and graphs showing percentages and absolute numbers of the donor-derived-cell subset (CD45.1^+ cells) in both lungs of the recipient LLC mice (n=3 mice per group). FIG. 2C: Cell-sorting schema for collecting monocytic MDSCs on day 3 after resection (left). Volcano plots showing differences in RNA expression of monocytic MDSCs from the bone marrow (BM) or lung between low-dose-AET-and vehicle-treated LLC mice (right) (n=3 biological replicates). FIG. 2D: Agilent cDNA array expression of chemokines and chemokine receptors in monocytic MDSCs from bone marrow or lungs of low-dose-AET-and vehicle-treated LLC mice (n=3 biological replicates). False-discovery-rate (FDR)-adjusted P values of CCR2 are 0.005 (bone marrow) and 0.016 (lung). Cxcr7 is also known as Ackr3. […] In the FACS plot, red represents low-dose AET and blue represents mock treatment. […]
FIGS. 10A-10H. […] CD45.1^+ cells (transferred polymorphonuclear MDSCs) were identified in the lungs of the recipient mice and analyzed by flow cytometry (right, n=3 mice per group). […] CD45.1^+ cells (transferred polymorphonuclear MDSCs) were identified in the lungs of the recipient CD45.2 mice and analyzed by flow cytometry at 18 h after transfer (right, n=3 mice per group). […] Gene-set enrichment P values, NES values and FDR values reported are calculated with 1,000 permutations in the GSEA software. […]

Compound	solubility ([1]; in acetone, ethanol and methyl ketone)	solubility ([1]; in dimethylsulfoxide (DMSO))	solubility ([1]; in ethanol/water (50/50), propylene glycol and polyethylene glycol)	solubility ([1]; in water, water-saturated octanol, 5% dextrose in water, N-methyl-2-pyrrolidone, normal saline and 5% Tween 80 in water)	expression of CCR2 in monocytic MDSCs from bone marrow in vivo (CCR2)
Nc1ncn([C@@H]2O[C@H](CO)[C@@H](O)[C@H]2O)c(=O)n1 [5-azacitidine, 4-amino-1-β-D-ribofuranozyl-s-triazin-2(1H)-one]	insoluble	soluble	slightly soluble	sparingly soluble	
Cc1ccc2nc(NCCN)c3ncc(C)n3c2c1 [BMS-345541]					decreased expression
